Experimental data: publication PMC2574930 (Cancer, 2008)

Key:
[1] = tested on: NCI-H727 cells; experiment: MTT proliferation assay, NCI-H727; type: cell-based, human; conditions: 72 hours incubation, drug applied every 24 hrs, 10^−10 to 10^−6
[2] = tested on: ERK1/2 phosphorylation in NCI-H727 cells; experiment: ELISA; type: cell-based, human; conditions: NCI-H727, 30 mins
[3] = tested on: ERK1/2 phosphorylation in KRJ-I cells; experiment: ELISA; type: cell-based, human
[4] = tested on: Ki67 transcript in NCI-H720 cells; experiment: Real-time PCR Ki67 transcripts, NCI-H720; type: cell-based, human
[5] = tested on: Ki67 transcript in KRJ-I cells; experiment: Real-time PCR Ki67 transcripts, KRJ-I; type: cell-based, human
[6] = tested on: p21^WAF1/CIP1 transcript in NCI-H720 cells; experiment: Real-time PCR p21WAF1/CIP1 transcripts, NCI-H720; type: cell-based, human
[7] = tested on: p21^WAF1/CIP1 transcript in NCI-H727 cells; experiment: Real-time PCR p21WAF1/CIP1 transcripts, NCI-H727; type: cell-based, human; conditions: NCI-H727, 24 hrs
[8] = tested on: p21^WAF1/CIP1 transcript in KRJ-I cells; experiment: Real-time PCR p21WAF1/CIP1 transcripts, KRJ-I; type: cell-based, human; conditions: IC50 concentration, 24 hrs, p<0.01 vs. control, Mean±SEM, n=4
[9] = tested on: sst1; conditions: read-out: sst1 receptor subtype specificity (IC50); human receptor; cited from earlier work
[10] = tested on: sst2; conditions: read-out: sst2 receptor subtype specificity (IC50); human receptor; cited from earlier work
[11] = tested on: sst3; conditions: read-out: sst3 receptor subtype specificity (IC50); human receptor; cited from earlier work
[12] = tested on: sst4; conditions: read-out: sst4 receptor subtype specificity (IC50); human receptor; cited from earlier work
[13] = tested on: sst5; conditions: read-out: sst5 receptor subtype specificity (IC50); human receptor; cited from earlier work

For `CC(C)[C@@H]1NC(=O)[C@H](CCCCN)NC(=O)[C@@H](Cc2c[nH]c3ccccc23)NC(=O)[C@H](Cc2ccc(O)cc2)NC(=O)[C@@H](NC(=O)[C@H](N)Cc2ccc3ccccc3c2)CSSC[C@@H](C(=O)N[C@H](C(N)=O)[C@@H](C)O)NC1=O` [Lanreotide], the “Effect on NCI-H727 proliferation” value [1] was “No effect”, the “ERK phosphorylation” value [2] was “no effect” and the “Activation of ERK1/2 signaling, vs. control” value ([3]; IC50 concentration, 30 mins, p=0.05 vs. control, Mean±SEM, n=4) was 25±8%. For the same compound, the “Ki67 transcript levels decreased, vs. unstimulated cells” value ([4]; NCI-H720, IC50 concentration, 24 hr, p<0.01, Mean±SEM, n=4) was 45±7%, the “Ki67 transcript down regulated, vs. control” value ([5]; IC50 concentration, 24 hrs, p<0.01 vs. control, Mean±SEM, n=4) was 73±12% and the “p21^WAF1/CIP1 transcript levels increased, vs. control” value ([6]; NCI-H720, IC50 concentration, 24 hr, p<0.01 vs. control, Mean±SEM, n=4) was 140±27%. The “p21^WAF1/CIP1 transcripts” value [7] was “not significantly up-regulated”, the “p21^WAF1/CIP1 transcripts elevated, vs. control” value [8] was 175±21% and the IC50 [9] was greater than 1000 nM. The IC50 [10] was 0.75 nM, the IC50 [11] was 98 nM and the IC50 [12] was greater than 1000 nM. The IC50 [13] was 12.7 nM.
In the case of `COc1cccc(-c2cc(=O)c3ccccc3o2)c1N` [PD98059], the “Inhibition of lanreotide-activated ERK1/2 signaling by PD98059” value ([3]; PD98059 pre-incubated 10 min prior to lanreotide) is reported as “could be inhibited”, the “Ki67 transcript decrease by lanreotide when inhibited by PD98059” value ([4]; NCI-H720, lanreotide 24 hr with PD98059, p<0.05 vs. lanreotide alone) is reported as 6±2% and the “Inhibition of lanreotide Ki67 down regulation by PD98059” value ([5]; p<0.05 vs. lanreotide alone) is reported as “inhibited”. The “Reversal of lanreotide-induced p21^WAF1/CIP1 increase by PD98059” value ([6]; NCI-H720, p<0.05 vs. lanreotide alone) was “reversible”.
In the case of Somatostatin-14, the IC50 [9] is listed as 1.95 nM, the IC50 [10] is listed as 0.25 nM and the IC50 [11] is listed as 1.2 nM. The IC50 [12] was 1.77 nM and the IC50 [13] was 1.41 nM.
In the case of Somatostatin-28, the IC50 [9] is given as 1.86 nM, the IC50 [10] is given as 0.31 nM and the IC50 [11] is given as 1.3 nM. For the same compound, the IC50 [12] was 5.4 nM and the IC50 [13] was 0.4 nM.
